# Assay results published in the supplement of paper PMC10307832.
# Legend:
# Assay in all cases: relative viability (nuclei count vs DMSO), 5 days (fraction); higher = more cells survive
# IDH-C35 + Alpelisib = compound: Cc1ccccc1C(C(=O)NC1CCCCC1)N(C(=O)Cn1ccnc1C)c1cccc(F)c1 [IDH-C35] + Cc1nc(NC(=O)N2CCC[C@H]2C(N)=O)sc1-c1ccnc(C(C)(C)C(F)(F)F)c1 [Alpelisib] (partner 2 µM)
# How it was run: (§1)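 Each reported value is a median over duplicate plates. It expresses relative viability: treated-well nuclei count divided by vehicle-well nuclei count. Lung cancer cell lines in 1536-well plates were dosed by pin tool a day after seeding, alone with one drug or with a fixed anchor-drug dose plus five library-drug doses (not always all listed) in √10 steps, and nuclei were counted after 5 days.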
# [1] = compound: CC1=C(C(=NN1)C)CC2=C(C3=C(S2)N(C(=O)N(C3=O)C)CC(C)C)C(=O)N4C[C@@H](CO4)O + CC(=O)c1c(C)c2cnc(Nc3ccc(N4CCNCC4)cn3)nc2n(C2CCCC2)c1=O [Palbociclib] (partner 0.5 µM)
# How it was run: as §1
# IDH-C35 + Decitabine = compound: Cc1ccccc1C(C(=O)NC1CCCCC1)N(C(=O)Cn1ccnc1C)c1cccc(F)c1 [IDH-C35] + Nc1ncn([C@H]2C[C@H](O)[C@@H](CO)O2)c(=O)n1 [Decitabine] (partner 2 µM)
# How it was run: as §1
# [2] = compound: CC1=C(C(=NN1)C)CC2=C(C3=C(S2)N(C(=O)N(C3=O)C)CC(C)C)C(=O)N4C[C@@H](CO4)O + Nc1nc2[nH]cc(CCc3ccc(C(=O)N[C@@H](CCC(=O)O)C(=O)O)cc3)c2c(=O)[nH]1 [Pemetrexed] (partner 0.2 µM)
# How it was run: as §1
Cell Line,relative viability (IDH-C35 + Alpelisib; first compound 0.08 µM),relative viability (IDH-C35 + Alpelisib; first compound 0.253 µM),relative viability (IDH-C35 + Alpelisib; first compound 0.8 µM),relative viability (IDH-C35 + Alpelisib; first compound 2.53 µM),relative viability (IDH-C35 + Alpelisib; first compound 8 µM),relative viability ([1]; first compound 0.0025 µM),relative viability ([1]; first compound 0.007906 µM),relative viability ([1]; first compound 0.025 µM),relative viability ([1]; first compound 0.07906 µM),relative viability ([1]; first compound 0.25 µM),relative viability (IDH-C35 + Decitabine; first compound 0.08 µM),relative viability (IDH-C35 + Decitabine; first compound 0.253 µM),relative viability (IDH-C35 + Decitabine; first compound 0.8 µM),relative viability (IDH-C35 + Decitabine; first compound 2.53 µM),relative viability (IDH-C35 + Decitabine; first compound 8 µM),relative viability ([2]; first compound 0.0025 µM),relative viability ([2]; first compound 0.007906 µM),relative viability ([2]; first compound 0.025 µM),relative viability ([2]; first compound 0.07906 µM),relative viability ([2]; first compound 0.25 µM)
LK-2,1.11,1.05,0.991,1.1,1.04,0.642,0.715,0.646,0.626,0.457,0.327,0.368,0.205,0.395,0.289,0.307,0.347,0.245,0.3,0.257
HCC-366,0.476,0.311,0.387,0.403,0.352,0.377,0.406,0.387,0.372,0.523,0.359,0.344,0.403,0.288,0.324,0.178,0.191,0.133,0.172,0.181
BEN,0.988,0.927,0.885,0.975,0.942,0.448,0.484,0.471,0.423,0.502,0.683,0.707,0.681,0.707,0.75,0.697,0.836,0.558,0.665,0.687
NCI-H23,0.622,0.591,0.648,0.73,0.834,0.508,0.639,0.559,0.518,0.665,0.332,0.35,0.336,0.332,0.312,0.825,0.635,0.689,0.697,0.697
NCI-H1395,1.12,0.889,1.09,1.04,1.05,0.682,0.614,0.595,0.606,0.663,0.695,0.649,0.676,0.754,0.653,0.925,0.791,0.827,0.796,0.718
201T,0.989,0.998,0.95,0.968,1.02,0.358,0.355,0.369,0.327,0.367,0.871,0.839,0.86,0.839,0.836,0.311,0.342,0.322,0.309,0.32
NCI-H2170,0.798,0.776,0.832,0.795,0.788,0.432,0.446,0.431,0.39,0.409,0.428,0.451,0.482,0.507,0.457,0.261,0.274,0.252,0.248,0.266
NCI-H460,0.472,0.504,0.545,0.549,0.439,0.181,0.199,0.204,0.226,0.217,0.541,0.46,0.482,0.467,0.466,0.0637,0.0564,0.0621,0.0635,0.0733
NCI-H661,0.589,0.852,0.529,0.689,0.711,0.395,0.426,0.455,0.396,0.426,0.566,0.541,0.546,0.535,0.602,0.922,0.973,0.899,0.924,0.899
HCC-15,0.904,0.844,0.822,0.854,0.852,0.788,0.77,0.726,0.727,0.788,0.61,0.546,0.689,0.579,0.635,0.214,0.214,0.225,0.215,0.211
LCLC-103H,1.05,0.979,0.918,0.963,1.09,0.426,0.471,0.508,0.478,0.443,0.81,0.676,0.726,0.744,0.834,0.437,0.474,0.444,0.459,0.505
NCI-H441,0.649,,0.688,0.684,0.754,0.245,0.217,0.255,0.237,0.215,0.279,0.23,0.272,0.244,0.228,0.253,0.299,0.263,0.244,0.263
EPLC-272H,1.04,0.942,0.895,,0.897,0.322,0.315,0.319,0.324,0.331,0.357,0.392,0.344,,0.384,0.356,0.333,0.41,0.301,0.348
